Source: US4169097A, “2,3-Dihydro-4H-1-benzopyran-4-one O-carbamoyl oximes” (priority 1978, dated 1979)

Test system: gastric acid secretion
Experiment: modified standard pylorus-ligated secretory testing procedure in the rat
Format: in vivo, Sprague-Dawley rats
Conditions: 50-100 mg/kg p.o., 1 hr. prior to ligation, 4 hrs. after ligation; for % Inhibition Gastric acid output: titration to pH 7, vs control 0.5% Methocel; for % Inhibition Volume of gastric secretion: vs control 0.5% Methocel
Source text: Such effect is evidenced using a modified standard pylorus-ligated secretory testing procedure in the rat. Sprague-Dawley rats, weighing 180-210 g and previously fasted for 24 hrs., were used. All compounds were given perorally as suspensions in 0.5% Methocel 1 hr. prior to pylorus ligation. Under light ether anesthesia, the rat stomach was ligated at the pylorus region. Four hrs. after ligation, the conscious rat was sacrificed by a chloroform overdose. The stomach was carefully excised and its content drained into a centrifuge tube. Samples were centrifuged to separate secretions from debris. Gastric fluid volume reading and determination of sample contamination, based on debris and sample color, was made. Titration was performed on a sample aliquot from 1 ml diluted to a volume of 5 ml using distilled water. The titrant used was 0.1 N NaOH. Total gastric acid output in the stomach was determined by titration to pH 7. A dose from 50-100 mg/kg p.o. of a compound was administered to a group of rats and its effect on the volume of gastric secretion and acid output compared to a control group receiving 0.5% Methocel p.o. The activity of each compound based on the degree of inhibition of gastric acid output is set forth in Table I.

SMILES	% Inhibition Gastric acid output [%]	% Inhibition Volume of gastric secretion [%]
C=CCNC(=O)ON=C1CCOc2ccccc21 [VII, 2,3-Dihydro-4H-1-benzopyran-4-one O-[(2-Propenyl)aminocarbonyl]oxime]	89.9	76.2
CNC(=O)ON=C1CCOc2ccc(Cl)cc21 [V, 6-Chloro-2,3-dihydro-4H-1-benzopyran-4-one O-(Methylaminocarbonyl)oxime]	40.0	55.2
CCNC(=O)ON=C1CCOc2ccccc21 [III, 2,3-Dihydro-4-H-1-Benzopyran-4-one O-(Ethylaminocarbonyl)oxime]	79.7	61.8
NC(=O)ON=C1CCOc2ccccc21 [IX, 2,3-Dihydro-4H-1-benzopyran-4-one O-(Aminocarbonyl)oxime]	77.9	60.5
CCNC(=O)ON=C1CCOc2ccc(OC)cc21 [II, 2,3-Dihydro-6-methoxy-4-H-1-benzopyran-4-one O-(Ethylcarbamoyl)-oxime]	57.7	33.2
CCCNC(=O)ON=C1CCOc2ccccc21 [VIII, 2,3-Dihydro-4H-1-benzopyran-4-one 0-(1-Propylaminocarbonyl)oxime]	88.1	73.1
CNC(=O)ON=C1CCOc2ccccc21 [I, 2,3-Dihydro-4H-1-benzopyran-4-one O-(Methylcarbamoyl) oxime]	60.4	34.1
CNC(=O)ON=C1CCOc2ccc(OC)cc21 [IV, 2,3-Dihydro-6-methoxy-4H-1-benzopyran-4-one O-(Methylaminocarbonyl)oxime]	45.5	35.3
CNC(=O)ON=C1CCOc2ccc(N)cc21 [VI, 6-Amino-2,3-dihydro-4H-1-benzopyran-4-one O(Methylaminocarbonyl)oxime]	55.8	64.4
